In assay [1] the target is Prothrombin (Homo sapiens) (UniProt P00734). In words: Inhibitory activity against the human alpha-thrombin.
The target in assay [2] is Urokinase-type plasminogen activator (Homo sapiens) (UniProt P00749). Nature of the assay: Inhibitory activity against the human urokinase.
Assay [3] in a line: Anticoagulant activity for the compound by determining the concentration required to double the prothrombin time. The format is functional.
Assay [4] has as its target Serine protease 1 (Homo sapiens) (UniProt P07477). Nature of the assay: Inhibitory activity against the human trypsin.
The target of assay [5] is Plasminogen (Homo sapiens) (UniProt P00747). Nature of the assay: Inhibitory activity against the human plasmin.
Assay [6] concerns the target Vitamin K-dependent protein C (Homo sapiens) (UniProt P04070). Nature of the assay: Inhibitory activity against the activated human protein C.
Assay [7] is described as follows: Anticoagulant activity for the compound by determining the concentration required to double the thrombin time. Format: functional.
Assay [8] is described as follows: Anticoagulant activity for the compound by determining the concentration required to double the activated partial thromboplastin time. The format is functional.
Assay [9] has as its target Tissue-type plasminogen activator (Homo sapiens) (UniProt P00750). Nature of the assay: Inhibitory activity against the human tissue plasminogen activator.
The target of assay [10] is Vitamin K-dependent protein C (Homo sapiens) (UniProt P04070). In words: Inhibitory activity against the human activated protein C.
Sequence of Vitamin K-dependent protein C (Homo sapiens) (P04070 43-197 limits assumed): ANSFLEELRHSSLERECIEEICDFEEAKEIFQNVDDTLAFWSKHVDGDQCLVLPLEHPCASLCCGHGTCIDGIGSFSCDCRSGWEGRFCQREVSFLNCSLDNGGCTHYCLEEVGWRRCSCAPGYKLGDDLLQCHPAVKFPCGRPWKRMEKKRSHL
Sequence of Vitamin K-dependent protein C (Homo sapiens) (P04070 212-461 limits assumed): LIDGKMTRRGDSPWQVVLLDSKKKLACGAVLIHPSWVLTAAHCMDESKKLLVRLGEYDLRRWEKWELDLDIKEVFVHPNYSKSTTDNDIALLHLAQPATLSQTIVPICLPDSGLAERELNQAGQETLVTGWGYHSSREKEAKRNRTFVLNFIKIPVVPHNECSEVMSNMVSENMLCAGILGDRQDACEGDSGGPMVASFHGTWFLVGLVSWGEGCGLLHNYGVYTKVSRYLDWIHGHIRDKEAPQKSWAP

Sequence of Plasminogen (Homo sapiens) (P00747 97-580 limits assumed): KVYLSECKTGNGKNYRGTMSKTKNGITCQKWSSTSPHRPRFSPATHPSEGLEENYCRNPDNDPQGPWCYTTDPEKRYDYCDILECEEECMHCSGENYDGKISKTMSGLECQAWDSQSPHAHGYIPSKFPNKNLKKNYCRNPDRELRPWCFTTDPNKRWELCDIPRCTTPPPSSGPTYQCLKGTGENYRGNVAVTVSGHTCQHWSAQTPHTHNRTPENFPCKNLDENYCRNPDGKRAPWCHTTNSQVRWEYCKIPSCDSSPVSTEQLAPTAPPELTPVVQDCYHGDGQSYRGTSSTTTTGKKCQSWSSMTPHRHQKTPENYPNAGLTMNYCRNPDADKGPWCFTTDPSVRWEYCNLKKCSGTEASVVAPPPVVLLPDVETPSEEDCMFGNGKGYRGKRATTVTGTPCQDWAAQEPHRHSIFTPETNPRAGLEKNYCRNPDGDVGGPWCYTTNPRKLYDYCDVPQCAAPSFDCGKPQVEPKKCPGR
Sequence of Plasminogen (Homo sapiens) (P00747 581-810 limits assumed): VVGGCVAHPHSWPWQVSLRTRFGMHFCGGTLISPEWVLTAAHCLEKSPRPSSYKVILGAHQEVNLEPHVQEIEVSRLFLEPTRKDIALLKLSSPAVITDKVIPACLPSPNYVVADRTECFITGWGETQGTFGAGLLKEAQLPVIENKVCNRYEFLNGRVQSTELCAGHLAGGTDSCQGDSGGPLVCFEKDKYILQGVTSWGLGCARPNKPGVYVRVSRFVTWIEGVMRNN
Sequence of Tissue-type plasminogen activator (Homo sapiens) (P00750 36-562 limits assumed): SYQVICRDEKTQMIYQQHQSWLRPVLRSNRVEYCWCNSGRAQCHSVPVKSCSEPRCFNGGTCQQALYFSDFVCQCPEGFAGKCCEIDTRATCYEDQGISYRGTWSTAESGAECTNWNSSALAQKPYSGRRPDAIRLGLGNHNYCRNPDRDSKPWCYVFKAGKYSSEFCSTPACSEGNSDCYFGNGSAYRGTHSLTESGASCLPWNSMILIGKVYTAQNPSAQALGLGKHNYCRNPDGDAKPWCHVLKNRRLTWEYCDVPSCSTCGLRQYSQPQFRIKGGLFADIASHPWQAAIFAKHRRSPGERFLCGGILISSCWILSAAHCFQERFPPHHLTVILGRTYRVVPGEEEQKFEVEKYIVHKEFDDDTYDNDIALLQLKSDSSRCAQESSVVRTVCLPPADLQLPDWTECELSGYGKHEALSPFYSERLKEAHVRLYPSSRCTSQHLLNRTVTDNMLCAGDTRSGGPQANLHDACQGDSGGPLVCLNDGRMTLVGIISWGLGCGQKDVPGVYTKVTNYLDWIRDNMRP
Sequence of Serine protease 1 (Homo sapiens) (P07477 whole entry): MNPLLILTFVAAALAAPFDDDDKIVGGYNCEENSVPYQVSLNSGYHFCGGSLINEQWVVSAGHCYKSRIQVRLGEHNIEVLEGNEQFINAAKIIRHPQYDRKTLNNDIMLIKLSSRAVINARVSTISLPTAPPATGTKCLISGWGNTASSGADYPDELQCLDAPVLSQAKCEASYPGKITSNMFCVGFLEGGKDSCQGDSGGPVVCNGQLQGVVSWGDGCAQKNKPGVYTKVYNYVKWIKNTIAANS

As to `O=C(O)CN[C@H](CC1CCCCC1)C(=O)N1CCC[C@H]1C(=O)NC/C=C/c1c[nH]cn1`, in assay [1], the K ass was 8.4e+07 l M-1.

For `CN[C@H](Cc1ccccc1)C(=O)N1CCC[C@H]1C(=O)N[C@H](C=O)CCCNC(=N)N`, the K ass in [2] was 40000 l M-1; in assay [4] it was 91 l M-1; in assay [5], 1.5e+06 l M-1; in [6], 300000 l M-1; in [1] it was 6.7e+08 l M-1. Also, the Concentration in assay [3] worked out at 1000 ng/mL; in assay [7] it was 41 ng/mL; in [8] it was 930 ng/mL.

With `N[C@H](CC1CCCCC1)C(=O)N1CCC[C@H]1C(=O)NCCc1c[nH]cn1`, in assay [1], the K ass was 4.4e+06 l M-1.

As for `N[C@H](CC1CCCCC1)C(=O)N1CCC[C@H]1C(=O)NCCCc1c[nH]cn1`, the K ass in assay [9] is < 10000 l M-1; in assay [2], < 10000 l M-1; in [4] it was 10000 l M-1; in [10] it was < 10000 l M-1; in assay [5], < 10000 l M-1; in assay [1], 2e+07 l M-1. Besides, the values for the Concentration in [3], in [7] and in assay [8] were 1000 ng/mL, 74 ng/mL and 660 ng/mL, respectively.

In the case of `O=C(O)CN[C@H](CC1CCCCC1)C(=O)N1CCC[C@H]1C(=O)NCCCc1c[nH]cn1`, the K ass in assay [9] was < 10000 l M-1; in [2] it was < 10000 l M-1; in assay [4] it was 290000 l M-1; in [10], 20000 l M-1; in assay [5] it was < 10000 l M-1; in [1] it was 1e+08 l M-1. The Concentration was found to be 380 ng/mL in assay [3], 20 ng/mL in assay [7] and 170 ng/mL in [8].

With `N[C@H](CC1CCCCC1)C(=O)N1CCC[C@H]1C(=O)NCCCCc1c[nH]cn1`, the K ass in [1] is 1.3e+06 l M-1.

On to `Cc1[nH]cnc1CCCNC(=O)[C@@H]1CCCN1C(=O)[C@H](N)CC1CCCCC1`, for which the K ass in assay [1] was 2.3e+07 l M-1.

As for `N[C@H](CC1CCCCC1)C(=O)N1CCC[C@H]1C(=O)NC/C=C/c1c[nH]cn1`, the K ass in assay [1] is 1.6e+07 l M-1.

For the compound `NC(N)=NCCCCNC(=O)[C@@H]1CCCN1C(=O)[C@H](N)CC1CCCCC1`, the K ass in [9] was 11000 l M-1; in assay [2], < 10000 l M-1; in [4], 260000 M⁻¹; in [5], 10000 l M-1; in assay [6] it was 10000 l M-1; in assay [1], 3e+07 l M-1. The Concentration in assay [3] came out at 770 ng/mL; in [7], 44 ng/mL; in assay [8], 490 ng/mL.

Turning to `N[C@H](CC1CCCCC1)C(=O)N1[C@H](C(=O)NC/C=C/c2c[nH]cn2)C[C@@H]2CCCC[C@@H]21`, the K ass in assay [1] was 7e+06 l M-1.

On to `N[C@H](CC1CCCCC1)C(=O)N1[C@H](C(=O)NCCCc2c[nH]cn2)C[C@@H]2CCCC[C@@H]21`, for which the K ass in assay [9] is < 10000 l M-1; in assay [2], < 10000 l M-1; in assay [4], 40000 l M-1; in assay [10] it was 10000 l M-1; in [5], < 10000 l M-1; in assay [1], 3.4e+07 l M-1. Moreover, the Concentration in assay [3] is 700 ng/mL; in [7], 61 ng/mL; in [8], 470 ng/mL.

(Values after ChEMBL document CHEMBL1131990, “The design of potent, selective, non-covalent, peptide thrombin inhibitors utilizing imidazole as a S1 binding element” (Bioorg Med Chem Lett, 1999).)
